The text below walks through data of patent US20240209028A1, “CNP COMPOUNDS” (priority 2022, published 2024).

The nature of the test: Mouse growth study (tail and body length). Type of test: in vivo, mice (C57BL/6J). To be noted: for body length higher compared to control group: 35 days; for change in tail length (from day 0) increased compared to control animals: after 35 days; for Tail length, Mean (%) change from day 0 / Body length, Mean (%) change from day 0: C57BL/6J mice. Here is the method: The purpose of this study was to evaluate growth in mice after treatment with two doses of CNP compound.
Procedure: Mice (C57BL/6J, male, age 4 weeks; n=10) received daily subcutaneous injections of compound 9482 or vehicle for 35 days. Formulations were prepared according to the principles described in General Methods of Preparation—Method G (30 and 70 nmol/kg, 10 mL/kg; Formulation buffer 8 mM sodium phosphate, 250 mM glycerol, 0.007% polysorbate 20, pH 7.4). Body weight and tail and body length were measured weekly throughout the study. The increase in growth was expressed as percentage change from day (mean (SD)).
In Table 28, increase in tail length is expressed as percentage change from day 0 (mean (SD)). Statistically significant differences are indicated compared to control group (two-way ANOVA).
In Table 29, increase in body length is expressed as percentage change from day 0 (mean (SD)). Statistically significant differences are indicated compared to control group (two-way ANOVA).

[1] abbreviates: both 30 and 70 nmol/kg daily s.c., p<0.05.

SMILES strings stand for the structures. Starred links: 1 amine or outer side, 2 acyl side, 3 side chain; linkers in the order of their positions; H or OH if unused. Positions of bridges follow the written chain, without caps; N, C: chain ends. Residues, ends and D or L forms follow the SMILES beside them. *: point of attachment. C18 diacid = O=C(O)CCCCCCCCCCCCCCCCC(=O)*; γGlu = O=C(O)[C@H](CCC(=O)[*:2])N[*:1]

Consider `CC[C@H](C)[C@@H]1NC(=O)[C@H](CCCNC(=N)N)NC(=O)[C@H](CC(=O)O)NC(=O)[C@H](CC(C)C)NC(=O)[C@@H]2CCCN2C(=O)[C@H](CC(C)C)NC(=O)CNC(=O)[C@H](Cc2ccccc2)NC(=O)[C@@H](NC(=O)CNC(=O)[C@H](CO)NC(=O)[C@H](CO)NC(=O)[C@H](CC(C)C)NC(=O)CNC(=O)[C@H](CCCCN)NC(=O)[C@H](CCCCN)NC(=O)[C@H](CCC(N)=O)NC(=O)[C@H](C)NC(=O)CNC(=O)[C@H](CCCCN)NC(=O)[C@H](Cc2ccc(O)cc2)NC(=O)[C@H](CCCCN)NC(=O)[C@H](CCCNC(=N)N)NC(=O)[C@H](C)NC(=O)[C@H](CCC(N)=O)NC(=O)[C@@H]2CCCN2C(=O)[C@H](Cc2c[nH]cn2)NC(=O)[C@H](CCC(=O)O)NC(=O)[C@H](CCC(N)=O)NC(=O)CC[C@H](NC(=O)CC[C@H](NC(=O)CC[C@H](NC(=O)CC[C@H](NC(=O)CC[C@H](NC(=O)CCCCCCCCCCCCCCCCC(=O)O)C(=O)O)C(=O)O)C(=O)O)C(=O)O)C(=O)O)CSSC[C@@H](C(=O)O)NC(=O)CNC(=O)[C@H](CC(C)C)NC(=O)CNC(=O)[C@H](CO)NC(=O)[C@H](CC(C)C)NC(=O)[C@H](CO)NC(=O)CNC1=O` [compound 9482] ({C18 diacid-γGlu-γGlu-γGlu-γGlu-γGlu}-QEHPQARKYKGAQKKGLSSGCFGLPLDRIGSLSGLGC-OH; disulfide 21-37), for which the “body length higher compared to control group” value is, setting by setting: (30 nmol/kg daily s.c.) 30%; (70 nmol/kg daily s.c.) 67%. The “change in tail length (from day 0) increased compared to control animals” value (30 nmol/kg daily s.c.) came out at 45% and the “change in tail length (from day 0) increased compared to control animals” value (70 nmol/kg daily s.c.) was 83%. The “Tail length, Mean (%) change from day 0” value came out at 11.8% (30 nmol/kg daily s.c., day 7); 16.0% (30 nmol/kg daily s.c., day 14); 24.1% (30 nmol/kg daily s.c., day 21); 25.6% (30 nmol/kg daily s.c., day 28); 28.5% (30 nmol/kg daily s.c., day 35); 14.3% (70 nmol/kg daily s.c., day 7). Also, the “Tail length, Mean (%) change from day 0” value was 20.3% (70 nmol/kg daily s.c., day 14); 29.0% (70 nmol/kg daily s.c., day 21); 32.0% (70 nmol/kg daily s.c., day 28); 35.7% (70 nmol/kg daily s.c., day 35). The “Body length, Mean (%) change from day 0” value (30 nmol/kg daily s.c., day 8) stood at 10.2%; the “Body length, Mean (%) change from day 0” value (30 nmol/kg daily s.c., day 18) worked out at 17.5%; the “Body length, Mean (%) change from day 0” value (30 nmol/kg daily s.c., day 25) is listed as 22.5%; the “Body length, Mean (%) change from day 0” value (30 nmol/kg daily s.c., day 35) is recorded as 27.4%; the “Body length, Mean (%) change from day 0” value (70 nmol/kg daily s.c., day 8) was found to be 12.8%; the “Body length, Mean (%) change from day 0” value (70 nmol/kg daily s.c., day 18) worked out at 21.5%. Moreover, the “Body length, Mean (%) change from day 0” value by setting is: (70 nmol/kg daily s.c., day 25) 29.0%; (70 nmol/kg daily s.c., day 35) 35.3%. Further, the “time after which body length was significantly increased compared to control” value under setting [1] stood at 18 days. The “time after which tail length was significantly increased compared to control” value under setting [1] is 7 days.
